# Experimental data published in US6716833B2, “Acetylenic α-amino acid-based sulfonamide hydroxamic acid tace inhibitors” (priority 1999, dated 2004).
# Counter-ions that a name gives are not always drawn. Like-named read-outs stand apart in the source and are kept apart here.
# Columns and labels:
# Format in all cases: biochemical
# MMP-13 = MMP-13 (Homo sapiens, UniProt P45452); test: MMP-13 inhibition (thiopeptide or fluorescent peptide substrate); conditions: read-out: MMP-13 IC50
# MMP-1 = target: T1, MMP-1 (Homo sapiens, UniProt P03956); test: MMP-1 inhibition (thiopeptide or fluorescent peptide substrate); conditions: read-out: MMP-1 IC50
# T1 sequence (P03956 100-469): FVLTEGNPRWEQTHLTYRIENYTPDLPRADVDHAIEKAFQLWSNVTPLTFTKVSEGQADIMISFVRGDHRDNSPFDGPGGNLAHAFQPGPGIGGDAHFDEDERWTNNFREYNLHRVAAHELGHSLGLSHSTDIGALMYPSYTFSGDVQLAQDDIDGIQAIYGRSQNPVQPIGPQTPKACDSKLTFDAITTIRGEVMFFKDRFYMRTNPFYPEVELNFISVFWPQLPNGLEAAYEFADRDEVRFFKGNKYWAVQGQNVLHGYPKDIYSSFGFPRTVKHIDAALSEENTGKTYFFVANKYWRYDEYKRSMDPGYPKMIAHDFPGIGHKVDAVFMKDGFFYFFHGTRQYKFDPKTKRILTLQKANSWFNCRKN
# MMP-9 = MMP-9 (Homo sapiens, UniProt P14780); test: MMP-9 inhibition (thiopeptide or fluorescent peptide substrate); conditions: read-out: MMP-9 IC50
# Sequence of MMP-9 (P14780 94-707): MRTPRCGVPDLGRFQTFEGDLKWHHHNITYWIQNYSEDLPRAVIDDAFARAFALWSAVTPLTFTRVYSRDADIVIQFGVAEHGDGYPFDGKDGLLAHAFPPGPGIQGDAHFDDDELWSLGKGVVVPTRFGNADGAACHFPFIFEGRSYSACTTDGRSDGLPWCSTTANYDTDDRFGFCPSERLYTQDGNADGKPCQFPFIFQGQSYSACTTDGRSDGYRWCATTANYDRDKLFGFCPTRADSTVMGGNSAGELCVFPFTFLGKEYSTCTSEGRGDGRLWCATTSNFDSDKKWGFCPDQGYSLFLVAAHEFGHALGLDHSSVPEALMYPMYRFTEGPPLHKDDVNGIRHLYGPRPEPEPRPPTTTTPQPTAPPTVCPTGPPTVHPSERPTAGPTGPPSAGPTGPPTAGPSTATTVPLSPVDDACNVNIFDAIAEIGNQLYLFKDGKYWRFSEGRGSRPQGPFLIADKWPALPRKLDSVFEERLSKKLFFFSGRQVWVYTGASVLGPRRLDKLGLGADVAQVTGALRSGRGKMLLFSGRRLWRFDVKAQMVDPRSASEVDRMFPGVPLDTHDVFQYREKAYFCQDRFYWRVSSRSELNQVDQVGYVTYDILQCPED
# [1] = target: TNF-α converting enzyme (TACE) (Homo sapiens, UniProt P78536); test: TACE inhibition (fluorescent peptidyl substrate); conditions: read-out: TACE IC50
# Sequence of TNF-α converting enzyme (TACE) (P78536 215-824, species assumed): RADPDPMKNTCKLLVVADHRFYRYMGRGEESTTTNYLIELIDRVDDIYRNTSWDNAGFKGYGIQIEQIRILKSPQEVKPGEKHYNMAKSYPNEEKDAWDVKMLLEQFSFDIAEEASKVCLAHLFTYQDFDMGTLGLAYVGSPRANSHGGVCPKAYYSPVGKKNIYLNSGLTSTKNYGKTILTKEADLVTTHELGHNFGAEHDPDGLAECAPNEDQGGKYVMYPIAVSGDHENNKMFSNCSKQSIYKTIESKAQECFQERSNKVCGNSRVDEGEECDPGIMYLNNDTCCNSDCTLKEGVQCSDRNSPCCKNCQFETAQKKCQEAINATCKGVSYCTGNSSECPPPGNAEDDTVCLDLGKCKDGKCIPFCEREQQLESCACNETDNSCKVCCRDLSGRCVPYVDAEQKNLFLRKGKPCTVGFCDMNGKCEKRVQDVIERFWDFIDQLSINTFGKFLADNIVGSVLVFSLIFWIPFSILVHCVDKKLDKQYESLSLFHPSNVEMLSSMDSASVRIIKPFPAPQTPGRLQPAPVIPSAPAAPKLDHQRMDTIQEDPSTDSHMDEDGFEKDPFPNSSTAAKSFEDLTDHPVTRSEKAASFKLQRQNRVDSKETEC
IC50 (MMP-13) [nM],IC50 (MMP-1) [nM],IC50 (MMP-9) [nM],IC50 [1] [nM],SMILES,also measured
4,113,12,10,"CC#CCOc1ccc(S(=O)(=O)N2CCN(C(=O)c3ccccc3)CCC2C(=O)NO)cc1 (centres unmarked) [Example 289, 1-Benzoyl-4-{[4-(2-butynyloxy)phenyl]sulfonyl}-N-hydroxy-1,4-diazepane-5-carboxamide]",
151,505,846,108,"CC#CCOc1ccc(S(=O)(=O)N(CC#CCN2CCN(C)CC2)C(C(=O)NO)C(C)C)cc1 (centres unmarked) [Example 125, 2-{{[4-(2-Butynyloxy)phenyl]sulfonyl}[4-(4-methyl-1-piperazinyl)-2-butynyl]amino}-N-hydroxy-3-methylbutanamide]",
24,645,26,16,"CC#CCOc1ccc(S(=O)(=O)N(C)C(C(=O)NO)c2ccc(OCCN)cc2)cc1 (centres unmarked) [Example 181, 2-[4-(2-Aminoethoxy)phenyl]-2-[{[4-(2-butynyloxy)phenyl]sulfonyl}(methyl)amino]-N-hydroxyacetamide]",
,,,,"CC1(C)SCCN(S(=O)(=O)c2ccc(OCC#CCCCN)cc2)[C@H]1C(=O)NO [Example 251, (3S)-4-({4-[(6-Amino-2-hexynyl)oxy]phenyl}sulfonyl)-N-hydroxy-2,2-dimethyl-3-thiomorpholine Carboxamide]",IC50 (MMP-13; Table 10): 8.7 nM; IC50 (MMP-1; Table 10): 226 nM; IC50 (MMP-9; Table 10): 28 nM; IC50 ([1]; Table 10): 28 nM
42,497,55,40,"CC#CCOc1ccc(S(=O)(=O)N(C)C(C(=O)NO)c2ccc(OCCN3CCCC3)cc2)cc1 (centres unmarked) [Example 183, 2-[{[4-(2-Butynyloxy)phenyl]sulfonyl}(methyl)amino]-N-hydroxy-2-{4-[2-(1-pyrrolidinyl)ethoxy]phenyl}acetamide]",
,,,,"CC#CCOc1ccc(S(=O)(=O)N2C[C@H](CN)SC(C)(C)[C@@H]2C(=O)NO)cc1 [Example 276, (3S,6S)-cis-6-(Aminomethyl)-4-{[4-(2-butynyloxy)phenyl]sulfonyl}-N-hydroxy-2,2-dimethyl-3-thiomorpholinecarboxamide Hydrochloride]",IC50 (MMP-13; Table 11): 24 nM; IC50 (MMP-1; Table 11): 21 nM; IC50 (MMP-9; Table 11): 84 nM; IC50 ([1]; Table 11): 57 nM
5.9,16,26,60,"CC#CCOc1ccc(S(=O)(=O)N(C)C(C(=O)NO)C(C)(C)SCCn2ccnc2)cc1 (centres unmarked) [Example 144, 2-({[4-(2-Butynyloxy)phenyl]sulfonyl)(methyl)amino]-N-hydroxy-3 Methyl-3-{[2-(1H-imidazol-1-yl)ethyl]sulfanyl}butanamide]",
11,546,29,52,"CC#CCOc1ccc(S(=O)(=O)N(C)C(C(=O)NO)c2ccc(OCCN3CCOCC3)cc2)cc1 (centres unmarked) [Example 179, 2-[{[4-(2-Butynyloxy)phenyl]sulfonyl}(methyl)amino]-N-hydroxy-2-{4-[2-(4-morpholinyl)ethoxy]phenyl}acetamide]",
10,121,24,7,"CC#CCOc1ccc(S(=O)(=O)N2Cc3ccccc3CC2C(=O)NO)cc1 (centres unmarked) [Example 41, 2-(4-but-2-ynyloxy-Benzenesulfonyl)-1,2,3,4-tetrahydro-isoquinoline-3-carboxylic Acid Hydroxyamide]",
120,2440,297,231,"CC#CCOc1ccc(S(=O)(=O)N(C)[C@@H](C(=O)NO)c2ccc(O[C@H]3CCN(C(=O)OC(C)(C)C)C3)cc2)cc1 [Example 189, tert-Butyl(3S)-3-{4-[(1R)-1-[{[4-(2-butynyloxy)phenyl]sulfonyl}(methyl)amino]-2-(hydroxyamino)-2-oxoethyl]phenoxy}-1-pyrrolidinecarboxylate]",
14,24,31,31,"CC#CCOc1ccc(S(=O)(=O)N(C)C(C(=O)NO)C(C)(C)SCCC)cc1 (centres unmarked) [Example 151, 2-[(4-but-2-ynyloxy-Benenesulfonyl)-methyl-amino]-N-hydroxy-3-methyl-3-propylsulfanyl-butyramide]",
,,,,"CCCCC#CCOc1ccc(S(=O)(=O)N2CCSC(C)(C)C2C(=O)NO)cc1 (centres unmarked) [Example 40, 4-(4-hept-2-ynyloxy-Benzenesulfonyl)-2,2-dimethyl-thiomorpholine-3-carboxylic Acid Hydroxyamide]",IC50 (MMP-13; Table 9): 6.6 nM; IC50 (MMP-1; Table 9): 29 nM; IC50 (MMP-9; Table 9): 7.8 nM; IC50 ([1]; Table 9): 23 nM
153,196,477,66,"CC#CCOc1ccc(S(=O)(=O)N(CCC)C(C(=O)NO)C(C)C)cc1 (centres unmarked) [Example 110, 2[(4-but-2-ynyloxy-Benzenesulfonyl)-propyl-amino]-N-hydroxy-3-methyl-butyramide]",
41,469,48,25,"CC#CCOc1ccc(S(=O)(=O)N(C)C(C(=O)NO)c2ccc(OCCCN)cc2)cc1 (centres unmarked) [Example 188, 2-[4-(3-Aminopropoxy)phenyl]-2-[{[4-(2-butynyloxy)phenyl]sulfonyl}(methyl)amino]-N-hydroxyacetamide]",
,,,,"CC(C)(C)OC(=O)NCCCC#CCOc1ccc(S(=O)(=O)N2CCSC(C)(C)[C@@H]2C(=O)NO)cc1 [Example 250, tert-Butyl 6-[4-({(3S)-3-[(Hydroxyamino)carbonyl]-2,2-dimethylthiomorpholinyl}sulfonyl)phenoxy]-4-hexynylcarbamate]",IC50 (MMP-13; Table 10): 1.7 nM; IC50 (MMP-1; Table 10): 42 nM; IC50 (MMP-9; Table 10): 160 nM; IC50 ([1]; Table 10): 153 nM
309,299,918,107,"CC#CCOc1ccc(S(=O)(=O)N(CC(C)C)C(C(=O)NO)C(C)C)cc1 (centres unmarked) [Example 113, 2-[(4-but-2-ynyloxy-Benzenesulfonyl)-isobutyl-amino]-N-hydroxy-3-methyl-butyramide]",

SMILES,IC50 (MMP-13) [nM],IC50 (MMP-1) [nM],IC50 (MMP-9) [nM],IC50 [1] [nM],also measured
"CC#CCOc1ccc(S(=O)(=O)N2CCN(C(=O)Nc3cc(Cl)cc(Cl)c3)CC2C(=O)NO)cc1 (centres unmarked) [Example 223, 4-{[4-(2-Butynyloxy)phenyl]sulfonyl}-N-1-(3,5-dichlorophenyl)-N-3-hydroxy-1,3-piperazinedicarboxamide]",153,1720,642,83,
"CC#CCOc1ccc(S(=O)(=O)N2CCN(C(=O)N(C)c3ccccc3)CC2C(=O)NO)cc1 (centres unmarked) [Example 220, 4-(4-but-2-ynyloxy-Benzenesulfonyl)-piperazine-1,3-dicarboxylic Acid 3-Hydroxyamide 1-(Methyl-phenyl-amide)]",62,1640,561,20,
"CC#CCOc1ccc(S(=O)(=O)N2CCN(C(=O)OC(C)(C)C)CC2C(=O)NO)cc1 (centres unmarked) [Example 58, 4-(4-but-2-ynyloxy-Benzenesulfonyl)-3-hydroxycarbamoyl-piperazine-1-carboxylic Acid tert-Butyl Ester]",17,456,24,21,
"CC#CCOc1ccc(S(=O)(=O)N2CCN(C(=O)N(C(C)C)C(C)C)CC2C(=O)NO)cc1 (centres unmarked) [Example 218, 4-(4-but-2-ynyloxy-Benzenesulfonyl)-piperazine-1,3-dicarboxylic Acid 1-Diisopropylamide 3-Hydroxyamide]",213,3290,822,49,
